This note sets out measurements from US20080081078A1, “Prevention of Cell Proliferation by Inhibiting Myosin Light Chain Kinase” (The Board of Trustees of the University of Illinois, priority 2006, published 2008).

One data set has as its system MLC20 phosphorylation. The data set is described as follows: MLC20 phosphorylation by urea gel/Western blotting in smooth muscle cells (SMC). Format: cell-based, pig. The following applies: 24 hrs, 10 μM Dex, 10 μM ActD, 100 μM Chx, 2 μM Cam, 100 μM Eto. The protocol:
NIH 3T3 fibroblasts were obtained from ATCC and were grown in Dulbecco's Modified Eagle Medium (DMEM) (Gibco BRL, Gaithersburg, Md.) supplemented with 10% FBS and 1% penicillin and streptomycin in a 37° C. incubator. 3T3 cells were treated with 500 nM actinomycin D in DMEM containing 0.5% FBS without antibiotics for the 0, 2, 4, 8, 16, or 24 hours. Cells were then washed with phosphate buffered saline (PBS). Floating cells were collected by centrifugation and combined with attached cells that were harvested by trypsinization. MLC20 phosphorylation was quantified be Western blotting with an anti-MLC20 antibody (FIG. 1). In short, the harvested cells were treated with ice cold 10% TCA, 10 mM DTT to precipitate the cellular proteins. The pellets were washed with acetone, dissolved in 9 M urea, 10 mM DTT, 20 mM Tris, pH 7.5 and separated using glycerol-urea polyacrylamide gel electrophoresis (PAGE). The proteins were transferred to nitrocellulose, the un-, mono-, and di-phosphorylated forms of MLC20 were identified using an affinity purified antibody to MLC20 and horseradish peroxidase-linked secondary antibody (Jackson ImmunoResearch, West Grove, Pa.). Protein bands were visualized with ECL reagent and the stoichiometry of phosphorylation (mol PO4/mol MLC20) was calculated as described (Obara et al., 1989, “Okadaic acid, a phosphatase inhibitor, produces a Ca2+ and calmodulin-independent contraction of lamb tracheal smooth muscle,” Pfluger's Archiv. 414: 134-138).
The stoichiometry of MLC20 phosphorylation (FIG. 1B, inset) was quantified using the urea gel/Western blotting method described above in untreated (Un) pig pulmonary artery smooth muscle cells (SMC) and SMC treated with 10 μM dexamethasone (Dex), 10 μM actinomycin D (ActD), 100 μM cycloheximide (Chx), 2 μM camptothecin (Cam), and 100 μM etoposide (Eto) for 24 hrs (mean+/−SE, n=3).
Next, in order to determine whether MLC-DP can trigger cell death, SMC were treated with ML-7 or KT5926, two inhibitors of MLCK (Nakanishi et al., 1990; Garcia, 1998; and Bain et al., 2003).
SMC cells were either treated with 10 μM cytochalasin D (CytD) or grown on the non-ionic substrate polyHema to prevent attachment.
(In general: In western blotting, separated proteins are transferred to a membrane and probed.)

Data set [1] has as its system precancerous mammary alveolar lesions (MAL). Description: Mouse mammary gland organ culture, DMBA-induced mammary alveolar lesions. Format: cell-based, Balb/c mice. The procedure:
Mammary glands obtained from young Balb/c mice that are exposed to 7,12-dimethylbenz(a)anthracene (DMBA) for 24 h in culture to form precancerous lesions in 24 days. The procedure has been successfully used to determine efficacy of chemopreventive agents and is described in detail elsewhere. (Mehta et al. PPARγ ligand and retinoids prevent preneoplastic mammary lesions. J. Natl Cancer Instit 2000; 92:418-23). Briefly, 70 mammary glands from 35 Balb/c mice were divided into seven groups of 10 glands each and incubated in serum-free medium containing insulin, prolactin (5 μg/ml each), aldosterone and hydrocortisone (1 μg/ml each) for 10 days. DMBA (2 μg/ml) was included in the medium for 24 h on day 3. […] The glands were fixed in formalin and stained with alum carmine and evaluated for MAL. Percent inhibition was calculated by comparing the incidence in the control glands with the treated groups.
Mammary glands obtained from young Balb/c mice were exposed to DMBA as described above and MAL formation was monitored. […] (Mehta et al. PPARγ ligand and retinoids prevent preneoplastic mammary lesions. J. Natl Cancer Instit 2000; 92:418-23) In the present study, we evaluated effects of etoposide and ML-7 at 0.1, 1.0 and 10.0 μM concentrations on the development of MAL in organ culture. […] Percentage inhibition was calculated by comparing the incidence in the control glands with the treated groups. […]

Another data set relates to Mm5MT cells. The protocol:
To investigate the anticancer activity of ML-7 in vivo, Mm5MT cells grown in culture were harvested immediately before injection into syngeneic MMTV-C3H/HeN mice. Cells were washed to remove serum and 10^6 cells were resuspended in 100 μl of serum-free DMEM. Healthy, MMTV-free female mice (14-20 weeks old) were anesthetized with ether and 10^6 cells were injected subcutaneously into the right flank. The mice were randomly divided into four groups of five mice each, and treated with vehicle, ML-7, etoposide or ML-7 plus etoposide. […] To deliver ML-7, a small horizontal incision was made in the interscapular area and a 200 μl osmotic pump (Alzet, Cupertino, Calif.) filled with either 27 mM ML-7 in 50% DMSO or 50% DMSO (vehicle control) was implanted and the wound closed. When given, 25 mg/kg etoposide was injected intraperitoneally on the first 3 days of every week for 4 weeks (days 7-9, 14-16, 21-23 and 28-30). The mice were sacrificed with ether after 4 weeks of drug administration and tumors were removed, weighed and processed for analysis.
Excised tumors were gently patted dry and weighed using a Mettler digital balance. Tumors were sectioned into 2 mm slices, fixed in 10% neutral buffered formalin, routinely processed and embedded in paraffin. […] Photomicrographs documenting the entire section were collected and areas of necrotic and viable tumor were determined using the manual tracing tools within MetaMorph 6.2 (Universal Imaging Corporation, Downingtown, Pa.).

As to `COc1cc([C@@H]2c3cc4c(cc3[C@@H](O[C@@H]3O[C@@H]5CO[C@@H](C)O[C@H]5[C@H](O)[C@H]3O)[C@H]3COC(=O)[C@H]23)OCO4)cc(OC)c1O` [etoposide], in the data set on MLC20 phosphorylation, the MLC20 phosphorylation entry was “dephosphorylated”. Also, the MAL formation result in data set [1] (0.1 μM) is on record as “did not affect MAL formation”. For the same compound, in data set [1] (1 and 10 μM), the “inhibition of incidence of MAL formation compared to control” value is reported as 40-46%. For the same compound, in the data set with Mm5MT cells (FIG. 14B), the “tumor necrosis (histology)” value is given as “Limited areas of necrosis”. In addition, the tolerability result with Mm5MT cells (mouse, in vivo) is on record as “without visible signs of discomfort”. Also, the tumor growth result in the data set on Mm5MT cells (single agents vs vehicle, only the etoposide effect statistically significant) is “decreased tumor growth”.
